This note sets out measurements from patent US8563503B2, “Antibiotic, its nucleotide sequence, methods of construction and uses thereof” (Protein Design Lab. Ltd., priority 2011, dated 2013).

Test [1] has as its system Multiple-drug resistance Pseudomonas aeruginosa (clinical separated strain 13280). In words: In vivo protection of mice infected by multiple-drug resistance Pseudomonas aeruginosa. Also on record: species or system Kungming mice. The note with it: fatal dose i.p. The source says: (1) Drugs • PMC-PA, piperacillin, amikacin, ceftazidime, levofloxacin.
Multiple-drug resistance Pseudomonas aeruginosa (clinical separated strain 13280, isolated by laboratory bacteria room of West China Hospital)
Kungming mice (n=60), half male and half female, weighing 15-20 g were given intraperitoneal injection of multiple-drug resistance Pseudomonas aeruginosa, therein PMC-PA, piperacillin, amikacin, ceftazidime and levofloxacin experimental group were set respectively as 10 mice per group, while the control group was set as 10 mice per group. After given intraperitoneal injection of fatal dose of the bacterium, the mice in drug experimental groups respectively were given an intravenous injection of one kind of above drugs, the results were observed per 24 hours for continuous 10 days. The positive result was mouse's death.

Test [2] concerns Staphylococcus aureus ATCC 29213. Kind of test: MIC against the infecting strain (Table 2). It counts as cell-based. The note with it: ATCC29213. Here is the method: (§1) (3) Culture Solution • MH Broth Culture Solution: 25 g was added into […] distilled water, heat to dissolve, subpackaged, autoclaved at 116° C. for 20 minutes, and MH Solid Culture Medium, 36 g was added into 1000 ml distilled water, autoclaved at 116° C. for 20 minutes, used for drug sensitive test of Gram-positive and negative aerobic bacteria. • Blood culture solution for Enterococcus faecalis, which was prepared by adding defibration rabbit blood into the MH culture solution by 5-10% and cultured at 37° C. in 5% CO2 for 24 hours. 2. Experimental Methods (1) The Measurement of Minimum Inhibitory Concentration (MIC) • The Minimum Inhibitory Concentration (MIC) of PMC-SA1 was measured by Agar Doubling Dilution Method. The bacterium was inoculated on the surface of agar plate containing different concentration of drugs by multipoint inoculate instrument (Deneley A400). The bacterial content per point was 10^5 CFU/ml. After incubated at 37° C. for 18-24 hours, the result can be observed. The least concentration of drugs in plate culture solution without bacterium growing was Minimum Inhibitory Concentration (MIC) of the drug to the said bacteria. 3. Results

Test [3] deals with Staphylococcus aureus MRSA BAA-42. In words: MIC against the infecting strain (Table 2). Particulars: Staphylococcus aureus MRSA BAA-42. In kind it is cell-based. The procedure:
as §1

Test [4] concerns E. coli 02-1-65. Kind of test: Protection test in vivo (intravenous injection) of infected mice. Particulars: mice, infected with 3.8 × 10^5 cfu/ml i.p., drug once intravenous. Also on record: species or system Kungming mice. The procedure:
(§2) The drugs used in this embodiment were same with that used in embodiment 4.
(§3) The above drugs were dissolved and diluted by sterilized water, and the injection concentrations of each drug were 10 mg/kg, 5 mg/kg and 2.5 mg/kg.
(§4) After given intraperitoneal injection of fatal dose of above-mentioned bacteria, the mice of each drug experimental group respectively were given once intravenous injection of the drug by 10 mg, 5 mg, 2.5 mg/kg. The results were observed per 24 hours for 7-14 days. The positive result is mice's death.

In test [5] the test system is Enterococcus ATCC 700802. The description is as above. Also on record: species or system Kungming mice. Particulars: mice, infected with 7.0 × 10^6 cfu/ml i.p., drug once intravenous. Here is the method:
as §2, §3, §4

Test [6] relates to Staphylococcus aureus ATCC 29213. Described as above. The note with it: mice, infected with 4.6 × 10^5 cfu/ml i.p., drug once intravenous. Set-up: species or system Kungming mice. Here is the method:
as §2, §3, §4

Test [7] concerns Staphylococcus aureus MRSA BAA-42. The description is as above. Set-up: species or system Kungming mice. Particulars: mice, infected with 6.5 × 10^5 cfu/ml i.p., drug once intravenous. Here is the method:
as §2, §3, §4

For test [8], the system named is methicillin-resistant Staphylococcus aureus ATCC BAA-42. In words: Bacteria growth curve (A595 nm), comparison of the novel antibiotics. In kind it is cell-based. Particulars: drug 5 μg/ml, 37° C., A595 nm per hour. The procedure:
The following experiment was set for comparing bacteriostasis effects of 6 kinds of the novel antibiotics. The experimental bacteriaum was United States Standard Strain methicillin-resistant Staphylococcus aureus ATCC BAA-42. 5 microliter of bacteria solution (10^6 CFU/ml level bacterium amount) was added into 10 ml culture solution containing 1% peptone, 1% NaCl, 0.5% yeast extract, 0.5% glucose and 0.1% K2HPO4, total of 8 groups were prepared. The first group as control was added 0.3 M NaCl+50 mM boric acid buffer fluid by the same volume as that of antibiosis polypeptide liquid added in any experimental groups, the second group was added penicillin G sodium by 5 μg/ml, PMC-SA1, PMC-SA2, PMC-SA3, PMC-SA4, PMC-SE and PMC-PA were added in the other experimental groups with preservative fluid being 0.3 M NaCl+50 mM boric acid buffer fluid by 5 ug/ml.
The solution of above groups was put into 100 ml conical flask, 200 rpm, grew at 37° C. 100 μl was sampled per hour, and added onto 96-pore ELISA plate and measured bacteria grown cloudiness by spectrophotometer (A595 nm) color comparison. The bacteria growth curve was drawn up to compare the bacteriostasis efficacy of antibiosis polypeptide.

As to `CCN1CCN(C(=O)N[C@@H](C(=O)N[C@@H]2C(=O)N3[C@@H]2SC(C)(C)[C@@H]3C(=O)O)c2ccccc2)C(=O)C1=O` [piperacillin], the “time in which mice were all dead” value in test [1] (50 mg/kg intravenous) is recorded as at most 3 days. Consider `Cc1nnc(SCC2=C(C(=O)[O-])N3C(=O)[C@@H](NC(=O)Cn4cnnn4)[C@H]3SC2)s1.[Na+]` [Cefazolin, Cefazolin Sodium], for which the MIC in test [2] was determined as 7 µg/mL; in test [3], 6 µg/mL. Further, the ED50 in test [4] is recorded as over 30 mg/kg; in test [5] it was over 10 mg/kg; in test [6] it was 29.11 mg/kg; in test [7], 9.04 mg/kg. Consider `NCC[C@H](O)C(=O)N[C@@H]1C[C@H](N)[C@@H](O[C@H]2O[C@H](CN)[C@@H](O)[C@H](O)[C@H]2O)[C@H](O)[C@H]1O[C@H]1O[C@H](CO)[C@@H](O)[C@H](N)[C@H]1O` [amikacin], for which the “time in which mice were all dead” value in test [1] (5 mg/kg intravenous) is at most 4 days.

With `CC(C)(O/N=C(\C(=O)N[C@@H]1C(=O)N2C(C(=O)[O-])=C(C[n+]3ccccc3)CS[C@H]12)c1csc(N)n1)C(=O)O` [ceftazidime], the “survival rate of mice in 10 days” value in test [1] (50 mg/kg intravenous) is 20%. Turning to `C[C@H]1COc2c(N3CCN(C)CC3)c(F)cc3c(=O)c(C(=O)O)cn1c23` [levofloxacin], the “survival rate of mice in 10 days” value in test [1] (5 mg/kg intravenous) is recorded as 40%.

B1: PMC-SA4: Staphylococcus aureus pheromone AgrD IV linked to C-terminus of allosteric colicin Ia′; SEQ ID NO. 19; plasmid pBHC-SA4 (protein)
chain: SDPVRITNPAAESLGYDSDGREIMGVDIYLNPPRVDVFKGTPPAWSSFGNKTIWGGNEWVDDSPTRSDIEKRDKEITAYKNTLSAQQKENENKRTEAGKRLSAAIAAREKDENTLKTLRAGNADAADITRQEFRLLQAELREYGFRTEIAGYDALRLHTESRMLFADADSLRISPREARSLIEQAEKRQKDAQNADKKAADMLAEYERRKGILDTRLSELEKNGGAALAVLDAQQARLLGQQTRNDRAISEARNKLSSVTESLNTARNALTRAEQQLTQQKNTPDGKTIVSPEKFPGRSSTNHSIVVSGDPRFAGTIKITTSAVIDNRANLNYLLSHSGLDYKRNILNDRNPVVTEDVEGDKKIYNAEVAEWDKLRQRLLDARNKITSAESAVNSARNNLSARTNEQKHANDALNALLKEKENIRNQLSGINQKIAEEKRKQDELKATKDAINFTTEFLKSVSEKYGAKAEQLAREMAGQAKGKKIRNVEEALKTYEKYRADINKKINAKDRAAIAAALESVKLSDISSNLNRFSRGLGYAGKFTSLADWITEFGKAVRTENWRPLFVKTETIIAGNAATALVALVFSILTGSALGIIGYGLLMAVTGALIDESLVEKANKFWGIYSTCYFIM
modifications: The peptide of PMC-SA4
notes: Staphylococcus aureus pheromone AgrD IV linked to C-terminus of allosteric colicin Ia′; 19; plasmid pBHC-SA4
In the case of B1, in test [8], the “bacteriostasis effect on growth of methicillin-resistant Staphylococcus aureus (bacteria growth curve)” value (shortened to “bacteriostasis effect on growth”) is recorded as “less better”.

B2: PMC-SA3: Staphylococcus aureus pheromone AgrD III linked to C-terminus of allosteric colicin Ia′; SEQ ID NO. 17; plasmid pBHC-SA3 (protein)
chain: SDPVRITNPAAESLGYDSDGREIMGVDIYLNPPRVDVFKGTPPAWSSFGNKTIWGGNEWVDDSPTRSDIEKRDKEITAYKNTLSAQQKENENKRTEAGKRLSAAIAAREKDENTLKTLRAGNADAADITRQEFRLLQAELREYGFRTEIAGYDALRLHTESRMLFADADSLRISPREARSLIEQAEKRQKDAQNADKKAADMLAEYERRKGILDTRLSELEKNGGAALAVLDAQQARLLGQQTRNDRAISEARNKLSSVTESLNTARNALTRAEQQLTQQKNTPDGKTIVSPEKFPGRSSTNHSIVVSGDPRFAGTIKITTSAVIDNRANLNYLLSHSGLDYKRNILNDRNPVVTEDVEGDKKIYNAEVAEWDKLRQRLLDARNKITSAESAVNSARNNLSARTNEQKHANDALNALLKEKENIRNQLSGINQKIAEEKRKQDELKATKDAINFTTEFLKSVSEKYGAKAEQLAREMAGQAKGKKIRNVEEALKTYEKYRADINKKINAKDRAAIAAALESVKLSDISSNLNRFSRGLGYAGKFTSLADWITEFGKAVRTENWRPLFVKTETIIAGNAATALVALVFSILTGSALGIIGYGLLMAVTGALIDESLVEKANKFWGIYINCDFLL
modifications: The peptide of PMC-SA3
notes: Staphylococcus aureus pheromone AgrD III linked to C-terminus of allosteric colicin Ia′; 17; plasmid pBHC-SA3
As for B2, the “bacteriostasis effect on growth” value in test [8] is on record as “still less better”.

B3: PMC-SA2: Staphylococcus aureus pheromone AgrD II linked to C-terminus of allosteric colicin Ia′; SEQ ID NO. 15; plasmid pBHC-SA2 (protein)
chain: SDPVRITNPAAESLGYDSDGREIMAVDIYLNPPRVDVFKGTPPAWSSFGNKTIWGGNEWVDDSPTRSDIEKRDKEITAYKNTLSAQQKENENKRTEAGKRLSAAIAAREKDENTLKTLRAGNADAADITRQEFRLLQAELREYGFRTEIAGYDALRLHTESRMLFADADSLRISPREARSLIEQAEKRQKDAQNADKKAADMLAEYERRKGILDTRLSELEKNGGAALAVLDAQQARLLGQQTRNDRAISEARNKLSSVTESLNTARNALTRAEQQLTQQKNTPDGKTIVSPEKFPGRSSTNHSIVVSGDPRFAGTIKITTSAVIDNRANLNYLLSHSGLDYKRNILNDRNPVVTEDVEGDKKIYNAEVAEWDKLRQRLLDARNKITSAESAVNSARNNLSARTNEQKHANDALNALLKEKENIRNQLSGINQKIAEEKRKQDELKATKDAINFTTEFLKSVSEKYGAKAEQLAREMAGQAKGKKIRNVEEALKTYEKYRADINKKINAKDRAAIAAALESVKLSDISSNLNRFSRGLGYAGKFTSLADWITEFGKAVRTENWRPLFVKTETIIAGNAATALVALVFSILTGSALGIIGYGLLMAVTGALIDESLVEKANKFWGIGVNACSSLF
modifications: The peptide of PMC-SA2
notes: Staphylococcus aureus pheromone AgrD II linked to C-terminus of allosteric colicin Ia′; 15; plasmid pBHC-SA2
On to B3, for which the “bacteriostasis effect on growth” value in test [8] was “still less better”.

What is called MIC is the lowest concentration that inhibits growth of the organism. A lower MIC goes with inhibition by little substance. In general, ED50 refers to the dose that gives a 50% effect, or the effect in half of the subjects. Low values mean greater potency, high ones weaker potency.
